Data taken from ChEMBL document CHEMBL1201862, “PubChem BioAssay data set” (2004).
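Results reflect a 48-hour exposure of cells in 96-well plates to compound at five concentrations. The concentration for 50% growth inhibition is given as GI50.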 Calls of active or inactive are those of the source. Rule as the data show it: active = GI50 up to about 1.1 µM and inactive = higher.

Experiments:
Assay in all cases: growth of human tumour cells (NCI), 48 h
A549 = system: A549
HL-60 = system: HL-60
HOP-62 = system: HOP-62
HOP-92 = system: HOP-92
HT-29 = system: HT-29
K562 = system: K562
KM12 = system: KM12
NCI-H226 = system: NCI-H226
NCI-H23 = system: NCI-H23
NCI-H522 = system: NCI-H522
RPMI-8226 = system: RPMI-8226
SK-MEL-28 = system: SK-MEL-28
SK-OV-3 = system: SK-OV-3
SNB-75 = system: SNB-75
SW-620 = system: SW-620
TK-10 = system: TK-10
U-251 = system: U-251
UACC-62 = system: UACC-62
EKVX = system: EKVX
RXF 393 = system: RXF 393

Measured: GI50

COc1ccc(/C=N/n2cnc3c(c2=O)SC(=C(C#N)C#N)N3c2ccccc2)cc1
inactive: A549 > 100 µM | HL-60 > 100 µM | HOP-62 86.5 µM | HOP-92 38.8 µM | HT-29 > 100 µM | K562 > 100 µM | KM12 > 100 µM | NCI-H226 > 100 µM | NCI-H23 > 100 µM | NCI-H522 56.2 µM | RPMI-8226 > 100 µM | SK-MEL-28 90.8 µM | SK-OV-3 > 100 µM | SNB-75 27.6 µM | SW-620 > 100 µM | TK-10 > 100 µM | U-251 > 100 µM | UACC-62 > 100 µM

COc1ccc(-c2c3c(nc4nc(SCC(=O)c5ccc(Br)cc5)nc(N)c24)CCCC3)cc1OC
inactive: A549 > 100 µM | EKVX 84.1 µM | HL-60 90.6 µM | HOP-62 58.6 µM | HT-29 41.4 µM | K562 > 100 µM | KM12 > 100 µM | NCI-H23 > 100 µM | RPMI-8226 64.1 µM | RXF 393 19.3 µM | SK-MEL-28 64 µM | SK-OV-3 30.5 µM | SNB-75 14.9 µM | SW-620 74.5 µM | TK-10 > 100 µM | U-251 > 100 µM | UACC-62 > 100 µM

C[C@@H]1C[C@]2(C[C@@H](C)[C@H]3C(C[C@@]4(C)CCC[C@@H]5C6=C[C@H](CCC34C)OC6=CC(=O)OC5(C)C)O2)OC1=O (stereo not given in full)
inactive: A549 > 51.5 µM | EKVX > 51.5 µM | HL-60 > 51.5 µM | HOP-62 > 51.5 µM | HOP-92 43.1 µM | HT-29 > 51.5 µM | K562 > 51.5 µM | KM12 > 51.5 µM | NCI-H23 > 51.5 µM | NCI-H522 > 51.5 µM | RPMI-8226 > 51.5 µM | SK-OV-3 > 51.5 µM | SNB-75 13.1 µM | SW-620 > 51.5 µM | U-251 > 51.5 µM | UACC-62 > 51.5 µM

CCOC(=O)C1=C(C)N(C2OC(COC(C)=O)C(OC(C)=O)C(OC(C)=O)C2OC(C)=O)C(=O)NC1c1ccccc1 (stereo not given)
inactive: A549 > 100 µM | EKVX > 100 µM | HL-60 > 100 µM | HOP-62 > 100 µM | HT-29 > 100 µM | K562 > 100 µM | KM12 > 100 µM | NCI-H226 > 100 µM | NCI-H23 > 100 µM | NCI-H522 20 µM | RPMI-8226 4.84 µM | SK-MEL-28 > 100 µM | SK-OV-3 > 100 µM | SNB-75 55 µM | SW-620 > 100 µM | U-251 > 100 µM | UACC-62 > 100 µM

CC(=O)c1ccc(Oc2ccc(/C(C)=N\N=C(N)N)cc2)cc1
inactive: A549 4.12 µM | EKVX 4.51 µM | HOP-62 2.26 µM | HOP-92 2.96 µM | HT-29 1.67 µM | NCI-H23 3.75 µM | NCI-H522 1.8 µM | RPMI-8226 2.31 µM | SK-MEL-28 4.68 µM | SK-OV-3 2.83 µM | SNB-75 1.47 µM | TK-10 3.28 µM | U-251 2.77 µM | UACC-62 2 µM

COc1cc(C(O)(CC#N)c2cc3c(cc2Br)OCO3)cc(OC)c1OC (stereo not given)
inactive: A549 22.9 µM | EKVX 54.1 µM | HOP-62 1.63 µM | HOP-92 > 100 µM | HT-29 25.4 µM | K562 48 µM | KM12 21 µM | NCI-H226 30.8 µM | NCI-H23 51.9 µM | RPMI-8226 50.7 µM | RXF 393 17.2 µM | SK-MEL-28 23.4 µM | SK-OV-3 24.4 µM | SNB-75 65.3 µM | SW-620 40.3 µM | TK-10 42.8 µM | U-251 28.6 µM | UACC-62 24.9 µM
